The record followed here is patent publication US6599754B2, “Biphasic reaction vessel and methods of use” (University of Rochester, priority 2000, dated 2003).

In data set [1] the test system is trypsin. In words: Dynamic library selection experiment against trypsin in the biphasic vessel (LC-MS of extracted ions). The conditions noted are these: 121 compound library, trypsin 43 μM and 257 μM vs trypsin free control, 18 hours incubation; not verified by binding or inhibition constant. How it is done:
Selection experiments: 1,4-diacetoxycyclopent-2-ene, methoxyphenylacetic acid, hydrocinnamic acid, isovaleric acid, 4-pentynoic acid, cyclopentane carboxylic acid, cis-pinonic acid, tetrahydro-2-furoic acid, 2 -phenylpropionic acid, 2-cyclopentene-1-acetic acid, (−)-methoxyacetic acid and triethyl phosphite were weighed in 4 mL vials in the open atmosphere. Palladium tetrakistriphenylphosphine was added to the vial containing triethylphosphite under a nitrogen atmosphere inside a glove box. The reagents were diluted with freshly distilled methylene chloride under the nitrogen atmosphere. Stock solutions of 1,4 -diacetoxycyclopent-2-ene (2 M), methoxyphenylacetic acid (1.8 M), hydrocinnamic acid (1.8 M), isovaleric acid (1.8 M), 4-pentynoic acid (1.8 M), cyclopentane carboxylic acid (1.8 M), cis-pinonic acid (1.8 M), tetrahydro-2-furoic acid (1.8 M), 2-phenylpropionic acid (1.8 M), 2-cyclopentene-1-acetic acid (1.8 M), (−)-methoxyacetic acid (1.8 M) and palladium tetrakistriphenylphosphine (90 mM) with triethyl phosphite (360 mM) were prepared. An aliquot (611 μL) was removed from each of the ten acid stock solutions, added to a pear shaped flask, and evaporated to dryness. […]
Organic and aqueous samples were analyzed by electrospray LC-MS in positive ionization mode using an acetonitrile: water 1% trifluoroacetic acid gradient elution (30% CH3CN—90%). […]

Data set [2] can be described thus: Cellulose membrane permeability and partitioning between methylene chloride and water, analysed by LC/MS. It is filed as physicochemical. The conditions noted are these: for transport across cellulose membrane from organic to aqueous layer: LC/MS vial covered with cellulose membrane, methylene chloride / water; for solvent preference from relative LC/MS intensities of the two layers: methylene chloride in LC/MS vial, cellulose membrane, immersed in deionized water for twenty-four hours. How it is done: One of the key components to this system is the physical separation between the organic chemistry and the biomolecular receptor. As a simple test, starting material was dissolved in methylene chloride at reaction concentration in an LC/MS vial, the vial covered with a cellulose membrane and immersed in glass-distilled, deionized water for twenty-four hours (FIGS. 10A-B). The experiment was analyzed by LC/MS.
Furthermore, enough of the compound is present to detect by LC/MS without having to concentrate the sample.

For the compound `CC(=O)OC1C=CC(OC(=O)CC2C=CCC2)C1` (stereo not drawn) [1-acetoxy-4-(2-cyclopentene-1-acetoxy)cyclopent-2-ene], the “correlation of amount of compound (ion intensity) with presence of trypsin” value in data set [1] was “strong correlation”. `COC(C(=O)O)c1ccccc1` (stereo not drawn) [methoxyphenylacetic acid]: in data set [2], the “transport across cellulose membrane from organic to aqueous layer” value (shortened to “transport across cellulose membrane”) is “sufficient ability to undergo membrane transport” and the “solvent preference from relative LC/MS intensities of the two layers” value is recorded as “aqueous preference”. For the compound `CC(=O)OC1C=CC(OC(C)=O)C1` (stereo not drawn) [1,4-diacetoxycyclopent-2-ene], in data set [2], the “transport across cellulose membrane” value is “sufficient ability to undergo membrane transport” and the “solvent preference from relative LC/MS intensities of the two layers” value is “organic preference”. Turning to `COC(C(=O)OC1C=CC(OC(C)=O)C1)c1ccccc1` (stereo not drawn) [1-acetoxy-4-(methoxyphenylacetoxy)cyclopent-2-ene], in data set [2], the “transport across cellulose membrane” value is listed as “present at thirteen minutes in the aqueous layer”.
